Where “and” joins values, the source holds several entries; their conditions need not be identical. Equal entries are not always repeated.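 Test compounds were applied to cells in 96-well plates for 48 hours at 5 doses. GI50 marks 50% less growth. TGI is the concentration that stops growth completely.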
Assays:
Experiment in all cases: NCI anticancer screen, dose series, 48 h
HCT-15 colon = test system: HCT-15 colon
M14 melanoma = test system: M14 melanoma
SK-MEL-2 melanoma = test system: SK-MEL-2 melanoma
UACC-257 melanoma = test system: UACC-257 melanoma
SK-MEL-5 melanoma = test system: SK-MEL-5 melanoma
SF-539 CNS = test system: SF-539 CNS
SNB-75 CNS = test system: SNB-75 CNS
KM12 colon = test system: KM12 colon
CAKI-1 renal = test system: CAKI-1 renal
UACC-62 melanoma = test system: UACC-62 melanoma

Compound | TGI (HCT-15 colon) | TGI (M14 melanoma) | TGI (SK-MEL-2 melanoma) | TGI (UACC-257 melanoma) | TGI (SK-MEL-5 melanoma) | TGI (SF-539 CNS) | TGI (SNB-75 CNS) | TGI (KM12 colon) | TGI (CAKI-1 renal) | TGI (UACC-62 melanoma) | GI50 (M14 melanoma) | GI50 (SK-MEL-2 melanoma) | GI50 (SK-MEL-5 melanoma) | GI50 (SF-539 CNS) | GI50 (SNB-75 CNS) | GI50 (KM12 colon) | GI50 (CAKI-1 renal) | GI50 (UACC-62 melanoma) | GI50 (HCT-15 colon) | GI50 (UACC-257 melanoma)
Cc1cc(Cl)ccc1N1C(=O)C(=O)C(c2nc3ccccc3s2)/C(=N\NC(=O)c2ccccc2O)C1=O (centres undefined) | > 100 µM | > 100 µM | > 100 µM | > 100 µM | > 100 µM | > 100 µM | > 100 µM | > 100 µM | > 100 µM | > 100 µM | – | – | – | – | – | – | – | – | – | –
CC(C)c1cccc2sc(NC(=O)C(=O)CC(=O)c3ccc(F)cc3)nc12 | > 100 µM | > 100 µM | > 100 µM | > 100 µM | > 100 µM | > 100 µM | > 100 µM | > 100 µM | > 100 µM | > 100 µM | – | – | – | – | – | – | – | – | – | –
COc1cc(C(C)c2cc3c(cc2OCCOCCOc2cc4c(cc2C(C)c2cc(OC)c(OC)c(OC)c2)OCO4)OCO3)cc(OC)c1OC (centres undefined) | > 10 µM | > 100 µM | > 100 µM | > 10 µM | > 100 µM | > 100 µM | > 10 µM and 74.8 µM | > 100 µM | > 100 µM | > 100 µM | > 100 µM | > 100 µM | > 10 µM | > 100 µM | > 10 µM | > 100 µM | > 100 µM | > 100 µM | – | –
NCC(=O)OCN1C(=O)C2C3C=CC(C2C1=O)C1C2C(=O)N(COC(=O)CN)C(=O)C2C31 (centres undefined) | 36.9 µM and 34.8 µM | 35.3 µM and 33.9 µM | 38.6 µM and 41.2 µM | > 100 µM and 77.6 µM | 51.7 µM and 34 µM | 68.9 µM and 38.2 µM | 62.6 µM and > 100 µM | 48.4 µM and 42.2 µM | > 100 µM | 50.5 µM and 56 µM | – | – | – | – | – | – | – | – | – | –
CCOc1ccccc1N=C(NC(=O)CC)SC | > 100 µM | > 100 µM | > 100 µM | > 100 µM | > 10 µM | > 100 µM | > 100 µM | > 100 µM | > 100 µM | > 100 µM | > 100 µM | > 10 µM | – | > 100 µM | > 10 µM | > 100 µM | > 100 µM | > 100 µM | > 10 µM | > 100 µM
CC(C)(C)c1cc2c(OP(c3ccccc3)c3ccccc3)c(c1)Cc1cc(C(C)(C)C)cc(c1OP(c1ccccc1)c1ccccc1)Cc1cc(C(C)(C)C)cc(c1OP(c1ccccc1)c1ccccc1)Cc1cc(C(C)(C)C)cc(c1OP(c1ccccc1)c1ccccc1)C2 | > 50 µM | > 50 µM | > 50 µM | > 50 µM | > 50 µM | > 50 µM | > 50 µM | > 50 µM | > 5 µM | > 50 µM | > 50 µM | > 50 µM | > 50 µM | > 50 µM | > 50 µM | > 50 µM | – | > 50 µM | > 50 µM | > 50 µM
COc1ccccc1NC(=O)N/C(N)=N/c1nc2ccccc2s1 | > 100 µM | > 100 µM | > 100 µM | > 100 µM | > 100 µM | 0.411 µM | – | > 100 µM | > 100 µM | > 100 µM | 0.0788 µM | 0.446 µM | 0.201 µM | 0.0718 µM | 0.0556 µM | 0.0505 µM | 0.062 µM | 0.0647 µM | 0.0526 µM | –
C[C@]1(O)CC(=O)[C@]2(O)C3=C(C=C[C@]2(O)C1)C(=O)c1c(O)cccc1C3=O | 3.08 µM | 3.45 µM | 5.56 µM | 3.21 µM | 3.47 µM | 17 µM | 26.4 µM | 40.7 µM | 2.85 µM | 3.91 µM | 1.7 µM | 2.47 µM | 1.75 µM | 4.67 µM | 11.4 µM | 14 µM | 1.5 µM | 1.86 µM | 1.19 µM | 1.68 µM
COc1ccc(-c2ccc(=O)oc2-c2cc(OC)c(OC)c(OC)c2)cc1O | > 20.5 µM | > 100 µM | > 100 µM | > 100 µM | 3.45 µM | 0.104 µM | > 100 µM | > 35.8 µM | > 100 µM | > 100 µM | 0.018 µM | 0.315 µM | < 0.01 µM | < 0.0149 µM | 0.0389 µM | < 0.0248 µM | 0.0459 µM | < 0.0402 µM | 0.0138 µM | 0.099 µM
Cc1ccc2nc(NC(=O)CSC(=S)N3CCN(Cc4ccccc4)CC3)sc2c1 | > 100 µM | > 100 µM | > 100 µM | > 100 µM | > 100 µM | > 100 µM | > 100 µM | > 100 µM | > 100 µM | > 100 µM | > 100 µM | > 100 µM | 56 µM | > 100 µM | > 100 µM | > 94.3 µM | > 85.8 µM | > 100 µM | > 100 µM | > 100 µM
CC(C)(C)c1ccc(NC(=O)c2cc(=O)c3ccccc3[nH]2)c(C(C)(C)C)c1O | 15.5 µM | 13.9 µM | 26.4 µM | 21.3 µM | 19 µM | 26.3 µM | 21.8 µM | 8.53 µM | 19.2 µM | 22.9 µM | 3.81 µM | 12.6 µM | 6.51 µM | 13 µM | 7.4 µM | 3.13 µM | 5.74 µM | 9.65 µM | 4.32 µM | 6.35 µM
COc1ccc(OC)c(-c2cn3nc(-c4c[nH]c5ccc(Br)cc45)sc3n2)c1 | 5.47 µM | 4.75 µM | 13.4 µM | 30.7 µM | 15.2 µM | 3.41 µM | 24.3 µM | 6.24 µM | 6.22 µM | 13.2 µM | 2.1 µM | 3.33 µM | 3.86 µM | 1.78 µM | 3.72 µM | 2.19 µM | 2.04 µM | 3.15 µM | 2.11 µM | 7.45 µM
CCCCCCCCCCSS(=O)(=O)c1ccc(C)cc1 | 28.2 µM | 25 µM | 12.4 µM | 19.8 µM | 17.2 µM | 3.67 µM | 5.22 µM | 30.4 µM | 31.2 µM | 16.1 µM | – | – | – | – | – | – | – | – | – | –
O=C(O/N=C1/CCC/C1=C\c1ccccc1)c1ccc(Cl)cc1 | > 100 µM | > 100 µM | > 100 µM | > 100 µM | > 100 µM | > 62.2 µM | 78 µM | > 100 µM | > 82.4 µM | > 100 µM | – | – | – | – | – | – | – | – | – | –

Reference: PubChem BioAssay (NCI)
